{
  "source": "patent US12286453B2",
  "about": "“Methods of sequencing using nucleotides with 3′ acetal blocking group” (ILLUMINA CAMBRIDGE LIMITED, priority 2020, dated 2025)",
  "test": "Solution cleavage efficiency of palladium reagent formulations (HPLC kinetics)",
  "assay_type": "physicochemical",
  "conditions": "1 mM Pd species, 0.1 mM substrate, RT; 3 or 3.5 equivalents of THP vs 10 equivalents for [(Allyl)PdCl]2",
  "method": "The cleavage efficiency was determined by measuring the relative rate of cleavage of a 3′-AOM-nucleotide substrate. Briefly, to a 0.1 mM solution of 3′-AOM-nucleotide substrate in 100 mM buffer was added a stock solution of a palladium reagent to a final concentration of 1 mM in Pd species. The solution was incubated at RT and the reaction kinetic was monitored by taking aliquots from the reaction at set time points, quenching them with a 1:1 solution of EDTA/H2O2 (0.1:0.1 M) and analyzing them by HPLC for the formation of 3′-OH nucleotide and the disappearance of the 3′-AOM nucleotide substrate.",
  "data": [
    {"smiles": "[Cl-].[Cl-].[Cl][Pd][Cl].[Na+].[Na+]", "note": "[Na2PdCl4]", "values": [
      {"measurement": "cleavage efficiency (relative rate of cleavage)", "result": "comparable to that of [(Allyl)PdCl]2"}
    ]}
  ]
}
